Assay results: ChEMBL document CHEMBL1152667, “Synthesis and radiopharmacological investigation of 3-[4'-[(18)F]fluorobenzylidene]indolin-2-one as possible tyrosine kinase inhibitor” (Bioorg Med Chem, 2009)

Tests used:
Format in all cases: ADME, organism-based
Harderian gland = test: Biodistribution in Wistar rat harderian gland at 1.7 MBq, iv administered as single dose measured after 5 mins post-injection by gamma counting; conditions: in vivo
Femur = test: Biodistribution in Wistar rat femur at 1.7 MBq, iv administered as single dose measured after 5 mins post-injection by gamma counting; conditions: in vivo
Liver [1] = test: Biodistribution in Wistar rat liver at 1.7 MBq, iv administered as single dose measured after 10 mins post-injection by gamma counting; conditions: in vivo
[2] = Ratio of drug level in brown adipose tissue to blood in Wistar rat at 1.7 MBq, iv administered as single dose measured after 60 mins post-injection
[3] = Metabolic stability in Wistar rat blood assessed as compound remaining at 30 MBq, iv after 1 min by radio-HPLC analysis; conditions: read-out: Stability
Liver [4] = test: Biodistribution in Wistar rat liver at 1.7 MBq, iv administered as single dose measured after 30 mins post-injection by gamma counting; conditions: in vivo, 0.5 h
Adrenal gland [5] = test: Biodistribution in Wistar rat adrenal gland at 1.7 MBq, iv administered as single dose measured after 60 mins post-injection by gamma counting; conditions: in vivo, 1 h
Thymus [6] = test: Biodistribution in Wistar rat thymus at 1.7 MBq, iv administered as single dose measured after 60 mins post-injection by gamma counting; conditions: in vivo, 1 h
[7] = Ratio of drug level in liver to blood in Wistar rat at 1.7 MBq, iv administered as single dose measured after 60 mins post-injection
Heart [8] = test: Biodistribution in Wistar rat heart assessed as standard uptake value at 1.7 MBq, iv administered as single dose measured after 1 min post-injection by gamma counting; conditions: in vivo
Thymus [9] = test: Biodistribution in Wistar rat thymus assessed as standard uptake value at 1.7 MBq, iv administered as single dose measured after 1 min post-injection by gamma counting; conditions: in vivo
[10] = Biodistribution in Wistar rat thyroid gland assessed as standard uptake value at 1.7 MBq, iv administered as single dose measured after 30 mins post-injection by gamma counting; conditions: in vivo, 0.5 h
[11] = Biodistribution in Wistar rat brown adipose tissue assessed as standard uptake value at 1.7 MBq, iv administered as single dose measured after 60 mins post-injection by gamma counting; conditions: in vivo, 1 h
[12] = Biodistribution in Wistar rat thyroid gland assessed as standard uptake value at 1.7 MBq, iv administered as single dose measured after 60 mins post-injection by gamma counting; conditions: in vivo, 1 h
Pancreas = test: Biodistribution in Wistar rat pancreas at 1.7 MBq, iv administered as single dose measured after 1 min post-injection by gamma counting; conditions: in vivo
Adrenal gland [13] = test: Biodistribution in Wistar rat adrenal gland at 1.7 MBq, iv administered as single dose measured after 1 min post-injection by gamma counting; conditions: in vivo
Kidney = test: Biodistribution in Wistar rat kidney at 1.7 MBq, iv administered as single dose measured after 1 min post-injection by gamma counting; conditions: in vivo
Muscle tissue = test: Biodistribution in Wistar rat muscle assessed as standard uptake value at 1.7 MBq, iv administered as single dose measured after 10 mins post-injection by gamma counting; conditions: in vivo
[14] = Biodistribution in Wistar rat stomach at 1.7 MBq, iv administered as single dose measured after 1 min post-injection by gamma counting; conditions: in vivo
[15] = Biodistribution in Wistar rat urine at 1.7 MBq, iv administered as single dose measured after 1 min post-injection by gamma counting; conditions: in vivo
Heart [16] = test: Biodistribution in Wistar rat heart at 1.7 MBq, iv administered as single dose measured after 5 mins post-injection by gamma counting; conditions: in vivo

Drug uptake (Harderian gland): 0.34 %ID
Drug uptake (Femur): 0.35 %ID
Drug uptake (Liver [1]): 17.84 %ID
Kp at 1 h [2]: 4.3
remaining at 1 min [3]: 70%
Drug uptake (Liver [4]): 8.95 %ID
Drug uptake (Adrenal gland [5]): 0.04 %ID
Drug uptake (Thymus [6]): 0.05 %ID
Kp at 1 h [7]: 7.9
SUV (Heart [8]): 2.52%
SUV (Thymus [9]): 1.1%
SUV [10]: 0.4%
SUV [11]: 0.63%
SUV [12]: 0.16%
Drug uptake (Pancreas): 0.56 %ID
Drug uptake (Adrenal gland [13]): 0.15 %ID
Drug uptake (Kidney): 3.13 %ID
SUV (Muscle tissue): 0.69%
Drug uptake [14]: 0.71 %ID
Drug uptake [15]: 3.97 %ID
Drug uptake (Heart [16]): 0.54 %ID
Compound: O=C1Nc2ccccc2/C1=C/c1ccc([18F])cc1
